A short description of data set [1]: Pharmacokinetic analysis of tail vein administration in female rats. Particulars: for clearance / half-life: plasma. As to the method:
(§1) • Female SD rats (body weight: 200 g to 220 g) were purchased from BEIJING HFK BIOSCIENCE CO., LTD.
60 female SD rats were divided into two groups (Aintravenous and Bintravenous), with 30 rats per group (5 rats per blood collection time point). The drugs Aintravenous and Bintravenous were administered via tail vein injection at 3 mg/kg each (about 1.2 mL of drug solution). Blood was collected from the orbital venous plexus at time points (5 min, 30 min, 1 h, 2 h, 4 h, and 8 h) after administration, respectively, anticoagulated with heparin, and centrifuged, and then the plasma was separated and stored at −80° C. for later testing. At 8 h after blood collection, the animals were sacrificed, and the brain and liver tissues were taken and stored at −80° C. for later testing.
(§2) 100 μL of plasma sample, 10 μL of internal standard solution (100 ng/mL testosterone D-3 solution), and 310 μL of acetonitrile were accurately measured, uniformly mixed by vortexing, and centrifuged (14000 rpm, 4° C.), and a resulting supernatant was taken and detected using UPLC-MS/MS (the analysis method was the same as that in pharmacokinetic analysis in mice).
(§3) About 100 mg of brain or liver tissue sample was taken, and accurately weighed. 100 μL of water and 400 μL acetonitrile were accurately added thereto, and a resulting mixture was subjected to homogenization. 100 μL of brain or liver tissue homogenate, 10 μL of internal standard solution (100 ng/mL testosterone D-3 solution), and 310 μL of acetonitrile were accurately measured, uniformly mixed by vortexing, and centrifuged (14000 rpm, 4° C.), and a resulting supernatant was taken and detected using UPLC-MS/MS (the analysis method was the same as that in pharmacokinetic analysis in mice).

Data set [2] in a line: Pharmacokinetic analysis of oral gavage administration in female rats. As to conditions: for bioavailability: oral. As to the method: as §1
60 female SD rats were divided into two groups (Aoral and Boral), with 30 rats per group (5 rats per blood collection time point). The drugs Aoral and Boral were administered via oral gavage administration at 12 mg/kg each (about 1.6 mL of drug solution). Blood was collected from the orbital venous plexus at each time point (5 min, 30 min, 1 h, 2 h, 4 h, and 8 h) after administration, respectively, anticoagulated with heparin, and centrifuged, and then the plasma was separated and stored at −80° C. for later testing. At 8 h after blood collection, the animals were sacrificed, and the brain and Liver tissues were taken and stored at −80° C. for later testing.
as §2, §3

The mark [3] stands for this setting: female SD rats, tail vein, 3 mg/kg, 8 h after administration.
Where [4] appears, read: female, SD, rat, plasma, 12 mg/kg.

This is an account of results in patent publication US20260109731A1, “NE[…] USE THEREOF” (HUNAN MINGRUI PHARMACEUTICAL CO., LTD., priority 2023, published 2026).

Structures are written as SMILES.

For the compound `CC(=O)[C@H]1CC[C@H]2[C@@H]3CC[C@H]4C[C@H](O)CC[C@]4(C)[C@H]3CC[C@]12C` [Allopregnanolone, 5α-pregnan-3α-ol-20-one, reference compound], in data set [1] (female SD rats, intravenous (tail vein), 3 mg/kg, 8 h after administration), the “level of the administered compound in the liver” value is recorded as “undetectable”. In data set [1] (setting [3]), the “concentration in brain tissue” value is “undetectable” and the concentration in plasma result is “undetectable”. In addition, in data set [1] (female, SD, rat, iv, 3 mg/kg), the clearance is 109 mL/min/kg and the half-life was 52.2 min. Besides, the “level of the administered compound in the liver tissue (for compound 1 the sentence prints: in the plasma)” value in data set [2] (female SD rats, oral administration, 12 mg/kg, 8 h after administration) was “undetectable”. Further, the “level in plasma and brain tissue at all time points” value in data set [2] (female SD rats, oral gavage, 12 mg/kg) was “undetectable”. This compound also registered a bioavailability in data set [2] (setting [4]) of 0%.
Regarding `CC(=O)[C@H]1CC[C@H]2[C@@H]3CC[C@H]4C[C@H](O[N+](=O)[O-])CC[C@]4(C)[C@H]3CC[C@]12C` [Compound 1], the “level of allopregnanolone in the liver after administration of compound 1” value in data set [1] (female SD rats, intravenous compound 1, 3 mg/kg, 8 h) is “undetectable”. Further, the concentration at 8 h in data set [1] (female, SD, rat, brain, intravenous, 3 mg/kg) is 209 ng/g; in data set [1] (female, SD, rat, liver, iv, 3 mg/kg), 193 ng/g; in data set [2] (female, SD, rat, brain, po, 12 mg/kg) it was 1640 ng/g; in data set [2] (female, SD, rat, liver, po, 12 mg/kg), 3700 ng/g. Further, the Kp at 8 h in data set [1] (female, SD, rat, brain/plasma, intravenous, 3 mg/kg) was found to be 6.68; in data set [2] (female, SD, rat, brain/plasma, po, 12 mg/kg), 2.95. For the same compound, the clearance in data set [1] (female, SD, rat, iv, 3 mg/kg) is 87.8 mL/min/kg; in data set [2] (female SD rats, oral gavage, 12 mg/kg, sesame oil solution), 0.58 L/h/kg. Moreover, the half-life in data set [1] (female, SD, rat, iv, 3 mg/kg) was 57.6 min. Moreover, the Oral bioavailability in data set [2] (female SD rats, oral gavage 12 mg/kg vs tail vein 3 mg/kg) is over 65%. The same compound showed a bioavailability in data set [2] (setting [4]) of over 65%. The Tmax in data set [2] (female, SD, rat, plasma, po, 12 mg/kg) was over 8 h.
